Measured values from the NIST ThermoML archive (doi:10.1016/j.fluid.2013.08.029).
± gives the expanded uncertainty stated by the source.

Settings: 101.33 kPa, Liquid; for speed of sound: Sing-around technique in a fixed-path interferometer; for mass density: Vibrating tube method

Compound	speed of sound (288.15 K) [m/s]	mass density (288.15 K) [kg/m3]	speed of sound (293.15 K) [m/s]	mass density (293.15 K) [kg/m3]	speed of sound (298.15 K) [m/s]	mass density (298.15 K) [kg/m3]	speed of sound (303.15 K) [m/s]	mass density (303.15 K) [kg/m3]	speed of sound (308.15 K) [m/s]	mass density (308.15 K) [kg/m3]	speed of sound (313.15 K) [m/s]	mass density (313.15 K) [kg/m3]	speed of sound (318.15 K) [m/s]	mass density (318.15 K) [kg/m3]
CCCCCn1cc[n+](C)c1.[Br-] [1-pentyl-3-methylimidazolium bromide]	1678.6 ± 3	1264.08 ± 1.4	1644.2 ± 3	1260.52 ± 1.4	1617.5 ± 3	1256.87 ± 1.4	1596.4 ± 2.9	1253.05 ± 1.4	1578.9 ± 2.9	1249.57 ± 1.4	1563.7 ± 2.9	1246.17 ± 1.4	1550.2 ± 2.9	1242.76 ± 1.4
CCCCCn1cc[n+](C)c1.F[B-](F)(F)F [1-methyl-3-pentyl-imidazolium tetrafluoroborate]	1565.2 ± 2.9	1183.92 ± 1.2	1552.5 ± 2.9	1180.34 ± 1.2	1540.2 ± 2.9	1176.85 ± 1.2	1528.2 ± 2.9	1173.35 ± 1.2	1516.3 ± 2.9	1169.85 ± 1.2	1504.6 ± 2.9	1166.36 ± 1.2	1493.1 ± 2.9	1162.85 ± 1.2
OCCO [1,2-ethanediol]	1677.5 ± 2.2		1665.6 ± 2.2	1113.35 ± 0.16	1653.9 ± 2.2		1642.2 ± 2.2	1106.33 ± 0.16	1630.6 ± 2.2		1618.9 ± 2.2	1099.26 ± 0.16	1607.3 ± 2.2	
CCCCn1cc[n+](C)c1C.F[B-](F)(F)F [1-butyl-2,3-dimethylimidazolium tetrafluoroborate]	1668.6 ± 2.2	1199.9 ± 0.15	1654.9 ± 2.1	1196.72 ± 0.15	1641.4 ± 2.1	1193.34 ± 0.15	1628.7 ± 2.1	1189.92 ± 0.15	1616.9 ± 2.1	1186.52 ± 0.15	1605.1 ± 2.1	1183.17 ± 0.15	1593.9 ± 2.1	1179.54 ± 0.15
